This experiment relates to MV-4-11 cells. Put plainly: Gene expression microarray analysis (Affymetrix PrimeView) and GSEA. Type of experiment: cell-based, human. Further details: RFU PODN (11730768_x_at) / Fold change /veh PODN (11730768_x_at) / RFU LINC00158 (11744669_a_at) / Fold change /veh LINC00158 (11744669_a_at) / RFU DUSP10 (11751237_a_at) / Fold change /veh DUSP10 (11751237_a_at) / RFU ID3 (11757404_x_at) / Fold change /veh ID3 (11757404_x_at) / RFU PLEKHG5 (11737974_s_at) / Fold change /veh PLEKHG5 (11737974_s_at) / RFU LRRC4B (11730491_at) / Fold change /veh LRRC4B (11730491_at) / RFU GIMAP4 (11747438_a_at) / Fold change /veh GIMAP4 (11747438_a_at) / RFU KRT8 (11758183_x_at) / Fold change /veh KRT8 (11758183_x_at) / RFU CNN1 (11734310_a_at) / Fold change /veh CNN1 (11734310_a_at) / RFU VPS37D (11726825_at) / Fold change /veh VPS37D (11726825_at) / RFU C10orf10 (11716522_x_at) / Fold change /veh C10orf10 (11716522_x_at) / RFU KIR2DL2 /// KIR2DL4 /// KIR2DL5A /// KIR2DL5B /// KIR2DS1 /// KIR2DS2 /// KIR2DS3 /// KIR2DS4 /// KIR3DL3 /// KIR3DL3 /// KIR3DS1 (11738374_at) / Fold change /veh KIR2DL2 /// KIR2DL4 /// KIR2DL5A /// KIR2DL5B /// KIR2DS1 /// KIR2DS2 /// KIR2DS3 /// KIR2DS4 /// KIR3DL3 /// KIR3DL3 /// KIR3DS1 (11738374_at) / RFU C1QL1 (11718748_at) / Fold change /veh C1QL1 (11718748_at) / RFU TMPRSS4 (11747572_a_at) / Fold change /veh TMPRSS4 (11747572_a_at) / RFU HAMP (11756126_x_at) / Fold change /veh HAMP (11756126_x_at) / RFU RNFT2 (11725882_a_at) / Fold change /veh RNFT2 (11725882_a_at) / RFU NR4A2 (11747474_a_at) / Fold change /veh NR4A2 (11747474_a_at) / RFU ABCC12 (11746883_a_at) / Fold change /veh ABCC12 (11746883_a_at) / RFU TMEM136 (11760407_x_at) / Fold change /veh TMEM136 (11760407_x_at) / RFU CLDN22 /// WWC2 (11732394_at) / Fold change /veh CLDN22 /// WWC2 (11732394_at) / RFU HLA-DPB1 (11760878_x_at) / Fold change /veh HLA-DPB1 (11760878_x_at) / RFU SPINT1 (11716480_a_at) / Fold change /veh SPINT1 (11716480_a_at) / RFU GAP43 (11754022_s_at) / Fold change /veh GAP43 (11754022_s_at) / RFU A4GNT (11735810_at) / Fold change /veh A4GNT (11735810_at) / RFU PRB3 (11715151_x_at) / Fold change /veh PRB3 (11715151_x_at) / RFU TUBB4B (11761932_at) / Fold change /veh TUBB4B (11761932_at) / RFU CAPN14 (11732068_a_at) / Fold change /veh CAPN14 (11732068_a_at) / RFU TMCC2 (11721928_a_at) / Fold change /veh TMCC2 (11721928_a_at) / RFU IRGQ (11745062_a_at) / Fold change /veh IRGQ (11745062_a_at) / RFU FAM174B (11720279_a_at) / Fold change /veh FAM174B (11720279_a_at) / RFU TMPRSS4 (11748680_a_at) / Fold change /veh TMPRSS4 (11748680_a_at) / RFU FAM212B (11763350_a_at) / Fold change /veh FAM212B (11763350_a_at) / RFU PLEKHG5 (11743358_a_at) / Fold change /veh PLEKHG5 (11743358_a_at) / RFU ZSCAN30 (11745921_a_at) / Fold change /veh ZSCAN30 (11745921_a_at) / RFU CMKLR1 (11741424_a_at) / Fold change /veh CMKLR1 (11741424_a_at) / RFU LOC101060620 /// MAPK8IP1 (11723275_at) / Fold change /veh LOC101060620 /// MAPK8IP1 (11723275_at) / RFU SPTSSB (11747773_x_at) / Fold change /veh SPTSSB (11747773_x_at) / RFU PRSS12 (11739890_at) / Fold change /veh PRSS12 (11739890_at) / RFU BIN1 (11741810_x_at) / Fold change /veh BIN1 (11741810_x_at) / RFU WNT11 (11732464_a_at) / Fold change /veh WNT11 (11732464_a_at) / RFU C10orf10 (11716521_a_at) / Fold change /veh C10orf10 (11716521_a_at) / RFU C5orf56 (11738089_at) / Fold change /veh C5orf56 (11738089_at) / RFU CYB561 (11721691_x_at) / Fold change /veh CYB561 (11721691_x_at) / RFU ANKRD19P (11752326_a_at) / Fold change /veh ANKRD19P (11752326_a_at) / RFU OR2T12 /// OR2T33 /// OR2T8 (11738714_s_at) / Fold change /veh OR2T12 /// OR2T33 /// OR2T8 (11738714_s_at) / RFU VCAN (11748164_a_at) / Fold change /veh VCAN (11748164_a_at) / RFU JSRP1 (11732532_at) / Fold change /veh JSRP1 (11732532_at) / RFU KRTAP10-11 (11738290_x_at) / Fold change /veh KRTAP10-11 (11738290_x_at) / RFU MYO3A (11730013_a_at) / Fold change /veh MYO3A (11730013_a_at) / RFU EBF3 (11725865_a_at) / Fold change /veh EBF3 (11725865_a_at) / RFU CAMK2N1 (11719241_x_at) / Fold change /veh CAMK2N1 (11719241_x_at) / RFU C5orf56 (11738088_a_at) / Fold change /veh C5orf56 (11738088_a_at) / RFU OLFML3 (11715873_a_at) / Fold change /veh OLFML3 (11715873_a_at) / RFU LOC100653217 /// NTM (11731650_a_at) / Fold change /veh LOC100653217 /// NTM (11731650_a_at) / RFU MAPK11 (11762145_a_at) / Fold change /veh MAPK11 (11762145_a_at) / RFU FIZ1 (11724087_x_at) / Fold change /veh FIZ1 (11724087_x_at) / RFU OASL (11726364_x_at) / Fold change /veh OASL (11726364_x_at) / RFU SOX15 (11748057_x_at) / Fold change /veh SOX15 (11748057_x_at) / RFU CD79A (11719716_a_at) / Fold change /veh CD79A (11719716_a_at) / RFU HIST1H1D (11736915_at) / Fold change /veh HIST1H1D (11736915_at) / RFU CASKIN2 (11723855_a_at) / Fold change /veh CASKIN2 (11723855_a_at) / RFU LOC730098 (11760151_x_at) / Fold change /veh LOC730098 (11760151_x_at) / RFU OR4N2 (11742367_at) / Fold change /veh OR4N2 (11742367_at) / RFU PRRT2 (11749266_a_at) / Fold change /veh PRRT2 (11749266_a_at) / RFU SNX32 (11753110_a_at) / Fold change /veh SNX32 (11753110_a_at) / RFU CDHR5 (11726645_a_at) / Fold change /veh CDHR5 (11726645_a_at) / RFU RCAN1 (11760418_a_at) / Fold change /veh RCAN1 (11760418_a_at) / RFU FAM167A (11723789_a_at) / Fold change /veh FAM167A (11723789_a_at) / RFU FAM26E (11764081_at) / Fold change /veh FAM26E (11764081_at) / RFU ISYNA1 (11749810_s_at) / Fold change /veh ISYNA1 (11749810_s_at) / RFU ACY1 (11761880_at) / Fold change /veh ACY1 (11761880_at) / RFU 11764098_at / Fold change /veh 11764098_at / RFU SAMD14 (11745864_x_at) / Fold change /veh SAMD14 (11745864_x_at) / RFU NPB (11741838_a_at) / Fold change /veh NPB (11741838_a_at) / RFU TMPRSS6 (11731388_a_at) / Fold change /veh TMPRSS6 (11731388_a_at) / RFU KRTAP10-2 (11738614_at) / Fold change /veh KRTAP10-2 (11738614_at) / RFU ARHGAP8 /// PRR5-ARHGAP8 (11727945_x_at) / Fold change /veh ARHGAP8 /// PRR5-ARHGAP8 (11727945_x_at) / RFU KRTAP5-7 /// NADSYN1 (11734609_at) / Fold change /veh KRTAP5-7 /// NADSYN1 (11734609_at) / RFU RASL12 (11751679_a_at) / Fold change /veh RASL12 (11751679_a_at) / RFU CDKN2B (11736163_a_at) / Fold change /veh CDKN2B (11736163_a_at) / RFU PRF1 (11729649_at) / Fold change /veh PRF1 (11729649_at) / RFU, ZNF638 /// ZNF638-IT1 / Fold change vs veh, ZNF638 /// ZNF638-IT1 / RFU, PANK3 / Fold change vs veh, PANK3 / RFU, SH3YL1 / Fold change vs veh, SH3YL1 / RFU, ZEB2 / Fold change vs veh, ZEB2 / RFU, NRIP1 / Fold change vs veh, NRIP1 / RFU, PTTG1IP / Fold change vs veh, PTTG1IP / RFU, CAPN2 / Fold change vs veh, CAPN2 / RFU, MED14 / Fold change vs veh, MED14 / RFU, SNORA58 / Fold change vs veh, SNORA58 / RFU, C1orf63 / Fold change vs veh, C1orf63 / RFU, LRRFIP1 / Fold change vs veh, LRRFIP1 / RFU, NDUFAF7 / Fold change vs veh, NDUFAF7 / RFU, SLC12A2 / Fold change vs veh, SLC12A2 / RFU, IBTK / Fold change vs veh, IBTK / RFU, ESF1 / Fold change vs veh, ESF1 / Fold change vs veh, TMEM50B / RFU, TAOK1 / Fold change vs veh, TAOK1 / RFU, ACBD3 / Fold change vs veh, ACBD3 / RFU, TMA16 / Fold change vs veh, TMA16 / RFU, RWDD3 / Fold change vs veh, RWDD3 / RFU, BCAT1 / Fold change vs veh, BCAT1 / RFU, EDEM3 / Fold change vs veh, EDEM3 / RFU, TMEM33 / Fold change vs veh, TMEM33 / RFU, WDR75 / Fold change vs veh, WDR75 / RFU, AHCTF1 / Fold change vs veh, AHCTF1 / RFU, TFRC / Fold change vs veh, TFRC / RFU, ZDHHC17 / Fold change vs veh, ZDHHC17 / RFU, NOM1 / Fold change vs veh, NOM1 / RFU, ARL8B / Fold change vs veh, ARL8B / RFU, ZBTB11 / Fold change vs veh, ZBTB11 / RFU, TAMM41 / Fold change vs veh, TAMM41 / RFU, KIAA1704 /// LOC100996395 / Fold change vs veh, KIAA1704 /// LOC100996395 / RFU, ING1 / Fold change vs veh, ING1 / RFU, TRMT61B / Fold change vs veh, TRMT61B / RFU, FUBP3 / Fold change vs veh, FUBP3 / RFU, TP53 / Fold change vs veh, TP53 / RFU, TNKS2 / Fold change vs veh, TNKS2 / RFU, ZFP14 / Fold change vs veh, ZFP14 / RFU, ACTR2 / Fold change vs veh, ACTR2 / RFU, PPP3R1 / Fold change vs veh, PPP3R1 / RFU, PIK3R1 / Fold change vs veh, PIK3R1 / RFU, HNRNPA1 / Fold change vs veh, HNRNPA1 / RFU, RNF170 / Fold change vs veh, RNF170 / RFU, ZNF28 / Fold change vs veh, ZNF28 / RFU, RNGTT / Fold change vs veh, RNGTT / RFU, OGT / Fold change vs veh, OGT / RFU, BRD1 / Fold change vs veh, BRD1 / RFU, MARS / Fold change vs veh, MARS / RFU, ZNF655 / Fold change vs veh, ZNF655 / RFU, FAHD1 / Fold change vs veh, FAHD1 / RFU, BDP1 / Fold change vs veh, BDP1 / RFU, LRRCC1 / Fold change vs veh, LRRCC1 / RFU, ARID1A / Fold change vs veh, ARID1A / RFU, ZNF146 / Fold change vs veh, ZNF146 / RFU, ZNF330 / Fold change vs veh, ZNF330 / RFU, GPN3 / Fold change vs veh, GPN3 / RFU, C9orf123 / Fold change vs veh, C9orf123 / RFU, N4BP2L2 / Fold change vs veh, N4BP2L2 / RFU, ARFIP1 / Fold change vs veh, ARFIP1 / RFU, FAM179B / Fold change vs veh, FAM179B / RFU, BCL10 / Fold change vs veh, BCL10 / RFU, UHRF1BP1L / Fold change vs veh, UHRF1BP1L / RFU, BET1 / Fold change vs veh, BET1 / RFU, CNOT2 / Fold change vs veh, CNOT2 / RFU, ZNF268 / Fold change vs veh, ZNF268 / Fold change vs veh, ZNF507 / RFU, DGCR2 / Fold change vs veh, DGCR2 / RFU, WDSUB1 / Fold change vs veh, WDSUB1 / Fold change vs veh, HSP90B1 /// MIR3652 / RFU, ADSS / Fold change vs veh, ADSS / RFU, GK / Fold change vs veh, GK / RFU, ZNF148 / Fold change vs veh, ZNF148 / RFU, TAF9 / Fold change vs veh, TAF9 / RFU, SLC1A5 / Fold change vs veh, SLC1A5 / RFU, SLMO2 / Fold change vs veh, SLMO2 / RFU, ABCC4 / Fold change vs veh, ABCC4 / RFU, LOC101060439 /// RAP1B / Fold change vs veh, LOC101060439 /// RAP1B / RFU, RFX7 / Fold change vs veh, RFX7 / RFU, GTPBP10 / Fold change vs veh, GTPBP10 / RFU, CNEP1R1 / Fold change vs veh, CNEP1R1 / RFU, BIVM-ERCC5 /// ERCC5 / Fold change vs veh, BIVM-ERCC5 /// ERCC5 / RFU, ILF3 / Fold change vs veh, ILF3 / RFU 11762660_at / Fold change /veh 11762660_at / RFU VCAN (11757783_s_at) / Fold change /veh VCAN (11757783_s_at) / RFU DDX43 (11728927_at) / Fold change /veh DDX43 (11728927_at) / RFU KRT8 (11758188_x_at) / Fold change /veh KRT8 (11758188_x_at) / RFU NKD1 (11759106_at) / Fold change /veh NKD1 (11759106_at) / RFU SRD5A1 (11742802_a_at) / Fold change /veh SRD5A1 (11742802_a_at) / RFU TPSAB1 /// TPSB2 (11721975_s_at) / Fold change /veh TPSAB1 /// TPSB2 (11721975_s_at) / RFU GSTM3 (11746129_a_at) / Fold change /veh GSTM3 (11746129_a_at) / RFU IL23R (11737362_x_at) / Fold change /veh IL23R (11737362_x_at) / RFU TMEM51 (11727254_a_at) / Fold change /veh TMEM51 (11727254_a_at) / RFU PIWIL2 (11732686_x_at) / Fold change /veh PIWIL2 (11732686_x_at) / RFU ORM1 (11744905_x_at) / Fold change /veh ORM1 (11744905_x_at) / RFU CCDC152 (11743942_at) / Fold change /veh CCDC152 (11743942_at) / RFU ECM1 (11717891_a_at) / Fold change /veh ECM1 (11717891_a_at) / RFU IL23R (11748794_a_at) / Fold change /veh IL23R (11748794_a_at) / RFU TNFAIP8L3 (11732012_x_at) / Fold change /veh TNFAIP8L3 (11732012_x_at) / RFU MBOAT4 (11741988_at) / Fold change /veh MBOAT4 (11741988_at) / RFU 11764193_at / Fold change /veh 11764193_at / RFU TMEM53 (11763286_at) / Fold change /veh TMEM53 (11763286_at) / RFU MAGEB2 (11727129_at) / Fold change /veh MAGEB2 (11727129_at) / RFU TMEM200A (11744735_a_at) / Fold change /veh TMEM200A (11744735_a_at) / RFU CCDC152 (11751479_a_at) / Fold change /veh CCDC152 (11751479_a_at) / RFU FAM211A (11726209_a_at) / Fold change /veh FAM211A (11726209_a_at) / RFU RGS16 (11746705_a_at) / Fold change /veh RGS16 (11746705_a_at) / RFU VCAN (11755009_s_at) / Fold change /veh VCAN (11755009_s_at) / RFU RHOB (11743442_s_at) / Fold change /veh RHOB (11743442_s_at) / RFU RGS16 (11720943_a_at) / Fold change /veh RGS16 (11720943_a_at) / RFU RGS16 (11720944_at) / Fold change /veh RGS16 (11720944_at) / RFU, VPS4B / Fold change vs veh, VPS4B / RFU, CREB1 / Fold change vs veh, CREB1 / RFU, DNAJC13 / Fold change vs veh, DNAJC13 / RFU, GNAQ / Fold change vs veh, GNAQ / RFU, CDK5R1 / Fold change vs veh, CDK5R1 / RFU, ZRANB3 / Fold change vs veh, ZRANB3 / RFU, CUL4A / Fold change vs veh, CUL4A / RFU, CCNY / Fold change vs veh, CCNY / RFU, UFL1 / Fold change vs veh, UFL1 / RFU, COG3 / Fold change vs veh, COG3 / RFU, DIAPH2 / Fold change vs veh, DIAPH2 / RFU, SKA2 / Fold change vs veh, SKA2 / RFU, AFF3 / Fold change vs veh, AFF3 / RFU, LMF1 / Fold change vs veh, LMF1 / RFU, IPO11 / Fold change vs veh, IPO11 / RFU, DFFB / Fold change vs veh, DFFB / RFU, FOXP1 / Fold change vs veh, FOXP1 / RFU, CARD8 / Fold change vs veh, CARD8 / RFU, STRN3 / Fold change vs veh, STRN3 / RFU, ADK / Fold change vs veh, ADK / RFU, RASSF2 / Fold change vs veh, RASSF2 / RFU, WIPF1 / Fold change vs veh, WIPF1 / RFU, LARP1B / Fold change vs veh, LARP1B / RFU, RASA1 / Fold change vs veh, RASA1 / RFU, RB1 / Fold change vs veh, RB1 / RFU, PPFIA1 / Fold change vs veh, PPFIA1 / RFU, MAT2A / Fold change vs veh, MAT2A / RFU, CCT5 / Fold change vs veh, CCT5 / RFU, WDR92 / Fold change vs veh, WDR92 / RFU, CUX1 / Fold change vs veh, CUX1 / RFU, TTC7A / Fold change vs veh, TTC7A / RFU, TMEM135 / Fold change vs veh, TMEM135 / RFU, DEPTOR / Fold change vs veh, DEPTOR / RFU, CPM / Fold change vs veh, CPM / RFU, DNAJB6 / Fold change vs veh, DNAJB6 / RFU, CACNA2D3 / Fold change vs veh, CACNA2D3 / RFU, DTX4 / Fold change vs veh, DTX4 / RFU, TFCP2 / Fold change vs veh, TFCP2 / RFU, GMCL1 /// GMCL1P1 / Fold change vs veh, GMCL1 /// GMCL1P1 / RFU, AEBP2 / Fold change vs veh, AEBP2 / RFU, SNHG1 /// SNORD22 /// SNORD25 /// SNORD26 /// SNORD27 /// SNORD28 /// SNORD29 /// SNORD31 / Fold change vs veh, SNHG1 /// SNORD22 /// SNORD25 /// SNORD26 /// SNORD27 /// SNORD28 /// SNORD29 /// SNORD31 / Fold change (Aza/veh), C12orf56 (ProbeSet 11735607_a_at) / Fold change (ACY-1035/veh), C12orf56 (ProbeSet 11735607_a_at) / Fold change (Aza/veh), FGFR1OP (ProbeSet 11751329_s_at) / Fold change (ACY-1035/veh), FGFR1OP (ProbeSet 11751329_s_at) / Fold change (Aza/veh), VPS36 (ProbeSet 11739960_a_at) / Fold change (ACY-1035/veh), VPS36 (ProbeSet 11739960_a_at) / RFU SYPL1 (11715823_x_at) / Fold change /veh SYPL1 (11715823_x_at) / RFU IGFBP7 (11715501_s_at) / Fold change /veh IGFBP7 (11715501_s_at) / RFU REEP3 (11722064_at) / Fold change /veh REEP3 (11722064_at) / RFU IGLL1 (11728026_x_at) / Fold change /veh IGLL1 (11728026_x_at): dose or concentration left out as unconfirmed. The note with it: MV-4-11 cells, 48 hours.

Consider `Nc1ncn([C@@H]2O[C@H](CO)[C@@H](O)[C@H]2O)c(=O)n1` [azacitidine], for which the “Fold change /veh IL23R (11737362_x_at)” value is 1.70.

(Values after publication PMC5218480 (PLoS ONE, 2017).)
